Legend:
TPA induction of ODC = assay: ornithine decarboxylase (ODC) assay: inhibition of TPA induction of ODC; format: cell-based; details: concentration required to inhibit the TPA induction of ODC by 80 percent
ME 180 cell line [1] = assay: viability (tetrazolium dye, mitochondrial function); format: cell-based; details: Homo sapiens, 96 hours, read-out: MTS IC50
ME 180 cell line [2] = assay: incorporation of 3H-thymidine (antiproliferative); format: cell-based; details: Homo sapiens, 96 hours, radiolabeled thymidine incorporation, read-out: TdR IC50
RPMI 8226 cell line [3] = assay: viability (tetrazolium dye, mitochondrial function); format: cell-based; details: Homo sapiens, 96 hours, read-out: MTS IC50
RPMI 8226 cell line [4] = assay: incorporation of 3H-thymidine (antiproliferative); format: cell-based; details: Homo sapiens, 96 hours, radiolabeled thymidine incorporation, read-out: TdR IC50
AML-193 cell line [5] = assay: viability (tetrazolium dye, mitochondrial function); format: cell-based; details: Homo sapiens, 96 hours, read-out: MTS IC50
AML-193 cell line [6] = assay: incorporation of 3H-thymidine (antiproliferative); details: Homo sapiens, 96 h, read-out: TdR IC50 (nM)

`CCOC(=O)/C=C(C)/C=C/C=C1/CCCc2cc3c(cc21)C(C)(C)CCC3(C)C` [Compound 101a, Ethyl (2E,4E)-3-methyl-6-[(Z)-3,4,5,6,7,8-hexahydro-5,5,8,8-tetramethyl-2H-anthracen-1-ylidene]hexa-2,4-dienoate] gave an IC80 (TPA induction of ODC) of 91 nM.

With `CC(/C=C/C=C1/CC(C)(C)Oc2cc3c(cc21)C(C)(C)CCC3(C)C)=C\C(=O)O` [Compound 104b, (2E,4E)-3-Methyl-6-(2,3,6,7,8,9-hexahydro-2,2,6,6,9,9-hexamethylbenzo[b]-chromen-4-ylidene)-hexa-2,4-dienoic acid] the IC50 (ME 180 cell line [1]) was 1000 nM, the IC50 (ME 180 cell line [2]) was 90 nM and the IC50 (RPMI 8226 cell line [3]) was 90 nM. The IC50 (RPMI 8226 cell line [4]) was 30 nM, the IC50 (AML-193 cell line [5]) was 1000 nM and the IC50 (AML-193 cell line [6]) was 90 nM.
